{"source": "paper PMC8222254", "about": "“Self-assembly of an anion receptor with metal-dependent kinase inhibition and potent in vitro anti-cancer properties” (Nature Communications, 2021)", "key": {"[1]": {"biological_target": "140 purified human kinases (Rattus norvegicus, UniProt Q62868)", "sequence (Q62868 whole entry)": "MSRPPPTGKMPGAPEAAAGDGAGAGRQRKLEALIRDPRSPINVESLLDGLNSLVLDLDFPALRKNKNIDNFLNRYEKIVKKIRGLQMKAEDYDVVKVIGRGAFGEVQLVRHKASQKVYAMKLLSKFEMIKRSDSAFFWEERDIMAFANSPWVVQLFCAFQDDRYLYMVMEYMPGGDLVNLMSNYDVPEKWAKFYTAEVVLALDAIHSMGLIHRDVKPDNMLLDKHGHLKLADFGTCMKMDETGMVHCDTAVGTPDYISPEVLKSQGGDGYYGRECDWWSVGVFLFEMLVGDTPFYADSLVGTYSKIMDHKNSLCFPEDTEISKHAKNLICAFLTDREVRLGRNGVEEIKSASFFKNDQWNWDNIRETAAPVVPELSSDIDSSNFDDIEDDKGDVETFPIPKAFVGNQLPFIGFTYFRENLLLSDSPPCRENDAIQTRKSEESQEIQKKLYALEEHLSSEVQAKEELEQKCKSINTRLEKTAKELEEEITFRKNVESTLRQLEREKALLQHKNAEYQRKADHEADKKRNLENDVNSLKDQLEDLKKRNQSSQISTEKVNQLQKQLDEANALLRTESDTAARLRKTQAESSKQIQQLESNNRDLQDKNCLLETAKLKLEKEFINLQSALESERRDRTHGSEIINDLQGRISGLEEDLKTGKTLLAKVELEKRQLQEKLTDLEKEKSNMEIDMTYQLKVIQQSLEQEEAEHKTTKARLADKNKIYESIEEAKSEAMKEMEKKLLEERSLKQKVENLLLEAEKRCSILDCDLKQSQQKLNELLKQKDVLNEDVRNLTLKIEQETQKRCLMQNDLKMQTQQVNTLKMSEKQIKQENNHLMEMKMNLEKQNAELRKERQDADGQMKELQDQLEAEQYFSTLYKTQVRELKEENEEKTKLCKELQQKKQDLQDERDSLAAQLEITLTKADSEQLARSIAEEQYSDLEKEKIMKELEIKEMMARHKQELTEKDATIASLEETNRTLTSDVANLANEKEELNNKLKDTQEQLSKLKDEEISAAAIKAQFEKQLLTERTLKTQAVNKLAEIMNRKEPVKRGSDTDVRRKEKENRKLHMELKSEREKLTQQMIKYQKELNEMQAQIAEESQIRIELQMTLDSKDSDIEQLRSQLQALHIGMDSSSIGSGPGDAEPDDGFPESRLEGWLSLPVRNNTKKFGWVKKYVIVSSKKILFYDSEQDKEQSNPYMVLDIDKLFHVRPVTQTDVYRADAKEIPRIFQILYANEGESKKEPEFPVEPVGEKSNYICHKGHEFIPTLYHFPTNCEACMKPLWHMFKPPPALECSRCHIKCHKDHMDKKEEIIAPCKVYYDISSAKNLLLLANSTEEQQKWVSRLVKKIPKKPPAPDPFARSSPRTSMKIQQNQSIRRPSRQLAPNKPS", "experiment": "Kinase inhibition screen, cell-free 33P ATP assay at 10 μM", "type": "biochemical", "summary_of_the_method": "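Each complex tested in duplicate at 10 μM; cell-free radiometric assay using ^33P ATP on purified enzymes. Hits mapped by HGNC symbol onto the kinome tree.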"}, "ARPE-19": {"test_system": "ARPE-19", "experiment": "Metabolic flux analysis (Cell Energy Phenotype Assay, OCR/ECAR)", "type": "cell-based, human", "set-up": "Baseline EACR / Mean Baseline EACR / Stressed OCR / Mean Stressed OCR / Stressed EACR / Mean Stressed EACR / Baseline OCR / Mean Baseline OCR: unit not given here", "settings": "for Baseline EACR / Baseline OCR / Stressed EACR / Stressed OCR / Mean Baseline EACR / Mean Baseline OCR / Mean Stressed EACR / Mean Stressed OCR: ARPE19 cells", "experimental": "ARPE-19 and HCT116 cells were seeded in 8-well XFp plates (Agilent) 48 h prior to metabolic flux analyses using the Agilent XFp extracellular flux analyser. Cell seeding densities were 2500 cells/well for ARPE-19 cells and 7500 cells/well for HCT116 cells in order to achieve equivalent cell confluency (~70% confluency and in log phase growth) at the time of analyses. Cells were treated with 25 μM of [L2Zn3]^6+ or solvent control (0.2% DMSO) for 1 h or 20 h before metabolic flux analyses using the Cell Energy Phenotype Assay (Agilent) in accordance with the manufacturer’s instructions. For determination of maximal respiratory and glycolytic rates (metabolic reserve) following real-time quantification of basal respiratory and glycolytic rates, a ‘metabolic stress mix’ of 1 µM oligomycin and FCCP (0.5 µM for ARPE-19, 0.25 µM for HCT116) was injected into the media."}, "[2]": {"biological_target": "recombinant human AMPK (pT172 AMPKα1, pS108 AMPKβ1) (Homo sapiens, UniProt Q9Y478)", "sequence (Q9Y478 whole entry)": "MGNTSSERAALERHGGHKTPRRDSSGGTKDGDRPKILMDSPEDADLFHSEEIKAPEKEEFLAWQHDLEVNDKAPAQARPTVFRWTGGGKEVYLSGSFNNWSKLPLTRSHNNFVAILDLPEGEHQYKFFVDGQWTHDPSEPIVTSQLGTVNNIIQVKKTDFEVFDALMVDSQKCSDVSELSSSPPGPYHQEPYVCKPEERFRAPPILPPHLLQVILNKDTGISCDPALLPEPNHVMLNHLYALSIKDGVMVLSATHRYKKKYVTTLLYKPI", "sequence (P54646 whole entry partner)": "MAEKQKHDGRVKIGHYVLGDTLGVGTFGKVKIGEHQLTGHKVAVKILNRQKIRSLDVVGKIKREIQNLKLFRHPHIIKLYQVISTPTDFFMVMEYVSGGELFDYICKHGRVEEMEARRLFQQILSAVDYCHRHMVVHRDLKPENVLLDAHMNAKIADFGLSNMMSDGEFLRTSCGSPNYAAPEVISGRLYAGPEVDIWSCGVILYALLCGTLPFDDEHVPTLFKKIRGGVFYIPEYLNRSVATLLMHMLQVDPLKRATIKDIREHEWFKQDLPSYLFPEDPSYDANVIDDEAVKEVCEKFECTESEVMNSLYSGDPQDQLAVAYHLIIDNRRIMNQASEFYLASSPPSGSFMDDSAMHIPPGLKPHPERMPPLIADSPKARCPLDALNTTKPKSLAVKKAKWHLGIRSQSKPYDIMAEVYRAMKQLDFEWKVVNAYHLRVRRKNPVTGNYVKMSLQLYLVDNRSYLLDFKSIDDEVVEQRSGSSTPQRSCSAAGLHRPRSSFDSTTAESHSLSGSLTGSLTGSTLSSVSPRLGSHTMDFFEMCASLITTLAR", "sequence (P54619 whole entry partner)": "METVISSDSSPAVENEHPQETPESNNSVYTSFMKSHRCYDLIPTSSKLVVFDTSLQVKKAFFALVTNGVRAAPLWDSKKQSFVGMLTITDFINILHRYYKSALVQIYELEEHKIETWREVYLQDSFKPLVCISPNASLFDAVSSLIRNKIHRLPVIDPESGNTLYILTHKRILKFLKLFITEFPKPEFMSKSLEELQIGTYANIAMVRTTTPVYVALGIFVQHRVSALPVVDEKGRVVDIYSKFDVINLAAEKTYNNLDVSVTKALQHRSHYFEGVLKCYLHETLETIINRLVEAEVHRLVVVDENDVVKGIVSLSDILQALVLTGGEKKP", "experiment": "In vitro phosphatase assay with recombinant kinase, immunoblotting", "type": "biochemical", "settings": "concentration titration 0-50µM", "experimental": "(§1) 800 ng of purified recombinant human AMPK (α1β2γ1) or Src kinase (MRC PPU, International Centre for Kinase Profiling, University of Dundee) was incubated with 50 μM [L2Cu3]^6+, [L2Zn3]^6+, or vehicle control in 50 mM Tris HCl pH 7.5 containing 50 μM ATP for 4 h at 37 °C. For [L2Zn3]^6+ time course and concentration titration experiments, 800 ng recombinant human AMPK was used (α1β2γ1 AMPK isoform for pT172 AMPKα1 detection or α2β1γ1 AMPK isoform for pS108 AMPKβ1 detection). For evaluation of ATP dependency and influence of AMP, 50 µM ATP was replaced with 50 µM AMP or omitted. Reactions were stopped by addition of Laemmli’s buffer (Biorad) to 1x and heating at 95 °C for 5 min before analysis by SDS PAGE and immunoblotting for detection of specific phosphorylated amino acids of AMPK and Src proteins.\n(§2) Protein lysates and recombinant proteins were resolved on 15% SDS polyacrylamide gels. Proteins were electroblotted onto nitrocellulose membrane by wet transfer in 1xTris Glycine buffer (Biorad) at 35 mA overnight at room temperature. After blocking of membranes, these were incubated with primary antibody overnight at 4 °C before addition of rabbit or mouse secondary antibody (HRP-conjugated; 1:5000, Dako P0448 or P0260) for 1 h at room temperature and development of blots by enhanced chemiluminescence. Primary antibodies were: anti-Src (total) (Cell Signalling Technology #2123 1:1000), anti-phosphorylated Src (Y527) (Cell Signalling Technology #21055 1:1000), anti-phosphorylated Src (Y416) (Cell Signalling Technology #69435 1:1000), anti-AMPKα (total) (Cell Signalling Technology #2532 1:1000), anti-phosphorylated AMPKα (T172) (Cell Signalling Technology #2535 1:1000), anti-AMPKβ1 (total) (Cell Signalling Technology #4150 1:1000), anti-phosphorylated AMPKβ1 (S108) (abcam ab156890 1:500), anti-phospho-Tyr (pan) (Cell Signalling Technology #8954 1:2000), anti-p53 (Santa Cruz, DO-1 clone, 1:1000,), anti-phosphorylated LDH-A (Y10) (Cell Signalling Technology #8176 1:1000), anti-LDH-A/B (total) (abcam ab134187 1:5000), anti-β-actin (Merck MAB1501, 1:40,000). Quantification of signals was performed by densitometry using Image J software. Uncropped and unprocessed scans are provided in the Source Data file."}, "[3]": {"test_system": "recombinant human AMPK (pT172 AMPKα1, pS108 AMPKβ1)", "experiment": "In vitro phosphatase assay with recombinant kinase, immunoblotting", "type": "biochemical", "settings": "50µM", "experimental": "as §1, §2"}, "Src": {"biological_target": "T1, Src (Homo sapiens, UniProt P12931)", "T1 construct": "His tag (N); host or cells: baculovirus expression system", "T1 sequence (P12931 whole entry)": "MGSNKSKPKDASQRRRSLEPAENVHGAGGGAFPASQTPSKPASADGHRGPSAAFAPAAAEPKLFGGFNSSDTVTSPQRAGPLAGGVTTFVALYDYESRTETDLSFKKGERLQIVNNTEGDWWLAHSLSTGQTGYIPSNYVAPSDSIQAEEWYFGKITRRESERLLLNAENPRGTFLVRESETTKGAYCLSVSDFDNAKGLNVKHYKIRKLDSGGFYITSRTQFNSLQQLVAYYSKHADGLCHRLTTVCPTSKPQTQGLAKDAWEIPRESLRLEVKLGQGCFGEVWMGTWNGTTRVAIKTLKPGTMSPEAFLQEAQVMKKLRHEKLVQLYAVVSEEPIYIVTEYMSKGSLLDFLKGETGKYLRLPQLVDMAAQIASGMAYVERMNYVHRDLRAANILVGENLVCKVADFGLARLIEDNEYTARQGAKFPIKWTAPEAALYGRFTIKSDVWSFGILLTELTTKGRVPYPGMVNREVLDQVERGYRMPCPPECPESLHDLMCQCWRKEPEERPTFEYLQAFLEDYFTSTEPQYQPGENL", "experiment": "In vitro phosphatase assay with recombinant kinase, immunoblotting", "type": "biochemical", "settings": "50 μM complex, 4 h, with ATP", "experimental": "as §1, §2"}, "[4]": {"settings": "1h exposure, mean of 3 runs (Fig. 9c)"}, "[5]": {"settings": "20h exposure, mean of 3 runs (Fig. 9d)"}}}
{"compound": "[Cu+2].[Cu+2].[Cu+2].c1ccc(-c2csc(NCCN(CCNc3nc(-c4ccccn4)cs3)CCNc3nc(-c4ccccn4)cs3)n2)nc1.c1ccc(-c2csc(NCCN(CCNc3nc(-c4ccccn4)cs3)CCNc3nc(-c4ccccn4)cs3)n2)nc1", "note": "[[L2Cu3]6+]", "values": [{"measurement": "% activity", "setting": "[1]; ROCK 2, Run 1", "value": 16.5, "unit": "%"}, {"measurement": "% activity", "setting": "[1]; ROCK 2, Run 2", "value": 22.5, "unit": "%"}]}
{"compound": "CC(=O)[O-].CC(=O)[O-].CC(=O)[O-].CC(=O)[O-].CC(=O)[O-].CC(=O)[O-].[Zn+2].[Zn+2].[Zn+2].c1ccc(-c2csc(NCCN(CCNc3nc(-c4ccccn4)cs3)CCNc3nc(-c4ccccn4)cs3)n2)nc1.c1ccc(-c2csc(NCCN(CCNc3nc(-c4ccccn4)cs3)CCNc3nc(-c4ccccn4)cs3)n2)nc1", "note": "[[L2Zn3]6+]", "values": [{"measurement": "Baseline EACR", "setting": "ARPE-19; 1h exposure, Run 1 (Fig. 9c)", "value": 18.76}, {"measurement": "Baseline OCR", "setting": "ARPE-19; 1h exposure, Run 1 (Fig. 9c)", "value": 23.36}, {"measurement": "Stressed EACR", "setting": "ARPE-19; 1h exposure, Run 1 (Fig. 9c)", "value": 24.63}, {"measurement": "Stressed OCR", "setting": "ARPE-19; 1h exposure, Run 1 (Fig. 9c)", "value": 30.28}, {"measurement": "Baseline EACR", "setting": "ARPE-19; 1h exposure, Run 2 (Fig. 9c)", "value": 18.49}, {"measurement": "Baseline OCR", "setting": "ARPE-19; 1h exposure, Run 2 (Fig. 9c)", "value": 21.88}, {"measurement": "Stressed EACR", "setting": "ARPE-19; 1h exposure, Run 2 (Fig. 9c)", "value": 25.17}, {"measurement": "Stressed OCR", "setting": "ARPE-19; 1h exposure, Run 2 (Fig. 9c)", "value": 27.97}, {"measurement": "Baseline EACR", "setting": "ARPE-19; 1h exposure, Run 3 (Fig. 9c)", "value": 18.70}, {"measurement": "Baseline OCR", "setting": "ARPE-19; 1h exposure, Run 3 (Fig. 9c)", "value": 20.12}, {"measurement": "Stressed EACR", "setting": "ARPE-19; 1h exposure, Run 3 (Fig. 9c)", "value": 24.11}, {"measurement": "Stressed OCR", "setting": "ARPE-19; 1h exposure, Run 3 (Fig. 9c)", "value": 25.60}, {"measurement": "Mean Baseline EACR", "setting": "ARPE-19; [4]", "value": 18.65}, {"measurement": "Mean Baseline OCR", "setting": "ARPE-19; [4]", "value": 21.79}, {"measurement": "Mean Stressed EACR", "setting": "ARPE-19; [4]", "value": 24.64}, {"measurement": "Mean Stressed OCR", "setting": "ARPE-19; [4]", "value": 27.95}, {"measurement": "Baseline EACR", "setting": "ARPE-19; 20h exposure, Run 1 (Fig. 9d)", "value": 13.57}, {"measurement": "Baseline OCR", "setting": "ARPE-19; 20h exposure, Run 1 (Fig. 9d)", "value": 9.08}, {"measurement": "Stressed EACR", "setting": "ARPE-19; 20h exposure, Run 1 (Fig. 9d)", "value": 15.01}, {"measurement": "Stressed OCR", "setting": "ARPE-19; 20h exposure, Run 1 (Fig. 9d)", "value": 12.02}, {"measurement": "Baseline EACR", "setting": "ARPE-19; 20h exposure, Run 2 (Fig. 9d)", "value": 10.60}, {"measurement": "Baseline OCR", "setting": "ARPE-19; 20h exposure, Run 2 (Fig. 9d)", "value": 7.37}, {"measurement": "Stressed EACR", "setting": "ARPE-19; 20h exposure, Run 2 (Fig. 9d)", "value": 11.55}, {"measurement": "Stressed OCR", "setting": "ARPE-19; 20h exposure, Run 2 (Fig. 9d)", "value": 9.95}, {"measurement": "Baseline EACR", "setting": "ARPE-19; 20h exposure, Run 3 (Fig. 9d)", "value": 12.23}, {"measurement": "Baseline OCR", "setting": "ARPE-19; 20h exposure, Run 3 (Fig. 9d)", "value": 7.73}, {"measurement": "Stressed EACR", "setting": "ARPE-19; 20h exposure, Run 3 (Fig. 9d)", "value": 13.58}, {"measurement": "Stressed OCR", "setting": "ARPE-19; 20h exposure, Run 3 (Fig. 9d)", "value": 9.28}, {"measurement": "Mean Baseline EACR", "setting": "ARPE-19; [5]", "value": 12.13}, {"measurement": "Mean Baseline OCR", "setting": "ARPE-19; [5]", "value": 8.06}, {"measurement": "Mean Stressed EACR", "setting": "ARPE-19; [5]", "value": 13.38}, {"measurement": "Mean Stressed OCR", "setting": "ARPE-19; [5]", "value": 10.41}, {"measurement": "glycolysis (ECAR)", "setting": "ARPE-19; ARPE-19, 25 μM, 1 h", "value": "unaffected"}, {"measurement": "concentration from which dephosphorylation is evident", "setting": "[2]", "value": "≥ 12.5", "unit": "µM"}, {"measurement": "time from which decrease in phosphorylated T172 AMPKα and S108 AMPKβ1 is evident", "setting": "[3]", "value": "≥ 2", "unit": "h"}, {"measurement": "decrease in Y527P relative to total Src levels", "setting": "Src", "value": "~ 30%"}, {"measurement": "increase in Y416P levels", "setting": "Src", "value": "~ 5 fold"}]}
